Where two headings read alike, the source gives them in different places.
Key:
Assay in all cases: NCI anticancer screen, SRB assay, 48 h
Format in all cases: cell-based, human
BT-549 (breast) = settings: Homo sapiens
How it was run: (§1)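 Sulforhodamine B protein assay read cell growth after 48 h of continuous compound exposure. Dose-response curves per cell line used at least five 10-fold-diluted concentrations, within a panel of fifty-three human lines from nine tumour types.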

COLO 205 (colon) = settings: Homo sapiens, COLO 205
How it was run: as §1

HCC-2998 (colon) = settings: Homo sapiens
How it was run: as §1

HCT-116 (colon) = settings: Homo sapiens
How it was run: as §1

HCT-15 (colon) = settings: Homo sapiens
How it was run: as §1

[1] = system: HOP-62 (non-small cell lung); settings: Homo sapiens
How it was run: as §1

HT29 (colon) = settings: Homo sapiens
How it was run: as §1

LOX IMVI (melanoma) = settings: Homo sapiens
How it was run: as §1

M14 (melanoma) = settings: Homo sapiens
How it was run: as §1

MCF7 (breast) = settings: Homo sapiens
How it was run: as §1

MDA-MB-231/ATCC (breast) = settings: Homo sapiens
How it was run: as §1

MDA-MB-435 (melanoma) = settings: Homo sapiens
How it was run: as §1

[2] = system: NCI-H322M (non-small cell lung); settings: Homo sapiens
How it was run: as §1

[3] = system: NCI-H522 (non-small cell lung); settings: Homo sapiens
How it was run: as §1

NCI/ADR-RES (ovarian) = settings: Homo sapiens, NCI/ADR-RES
How it was run: as §1

OVCAR-3 (ovarian) = settings: Homo sapiens
How it was run: as §1

OVCAR-4 (ovarian) = settings: Homo sapiens
How it was run: as §1

OVCAR-5 (ovarian) = settings: Homo sapiens
How it was run: as §1

[4] = system: RPMI-8226 (leukemia cell line); settings: Homo sapiens
How it was run: as §1

RXF 393 (renal) = settings: Homo sapiens
How it was run: as §1

SF-268 (CNS) = settings: Homo sapiens
How it was run: as §1

SF-295 (CNS) = settings: Homo sapiens
How it was run: as §1

SK-MEL-2 (melanoma) = settings: Homo sapiens
How it was run: as §1

SNB-75 (CNS) = settings: Homo sapiens
How it was run: as §1

TK-10 (renal) = settings: Homo sapiens
How it was run: as §1

U251 (CNS) = settings: Homo sapiens
How it was run: as §1

UACC-62 (melanoma) = settings: Homo sapiens
How it was run: as §1

UO-31 (renal) = settings: Homo sapiens
How it was run: as §1

[5] = 48 h exposure, SRB, read-out: GI50
[6] = read-out: pGI50 (-log of molar concentration causing 50% inhibition of net cell growth) (converted)

SMILES: O=C(/C=C/c1cccc(O)c1)c1cccc(-n2cc(-c3ccc(Cl)cc3)[nH]c2=O)c1 [4f, 4-(4-chlorophenyl)-1-3-[(E)-3-(3-hydroxyphenyl)-2-propenoyl]phenyl-2,3-dihydro-1H-2-imidazolone]
- GI50 (BT-549 (breast); [5]): 1450 nM
- GI50 (BT-549 (breast); [6]): 1450 nM
- GI50 (COLO 205 (colon); COLO205, read-out: pGI50 (-log of molar concentration causing 50% inhibition of net cell growth) (converted)): 2290 nM
- GI50 (COLO 205 (colon); [5]): 2290 nM
- GI50 (HCC-2998 (colon); [5]): 13700 nM
- GI50 (HCC-2998 (colon); [6]): 13800 nM
- GI50 (HCT-116 (colon); [5]): 1230 nM
- GI50 (HCT-116 (colon); [6]): 1230 nM
- GI50 (HCT-15 (colon); [5]): 2330 nM
- GI50 (HCT-15 (colon); [6]): 2340 nM
- GI50 [1, 5]: 2360 nM
- GI50 [1, 6]: 2340 nM
- GI50 (HT29 (colon); HT-29, 48 h exposure, SRB, read-out: GI50): 1900 nM
- GI50 (HT29 (colon); HT-29, read-out: pGI50 (-log of molar concentration causing 50% inhibition of net cell growth) (converted)): 1910 nM
- GI50 (LOX IMVI (melanoma); [5]): 1570 nM
- GI50 (LOX IMVI (melanoma); [6]): 1580 nM
- GI50 (M14 (melanoma); [5]): 2010 nM
- GI50 (M14 (melanoma); [6]): 2000 nM
- GI50 (MCF7 (breast); [5]): 1270 nM
- GI50 (MCF7 (breast); [6]): 1290 nM
- GI50 (MDA-MB-231/ATCC (breast); [5]): 3350 nM
- GI50 (MDA-MB-231/ATCC (breast); [6]): 3390 nM
- GI50 (MDA-MB-435 (melanoma); [5]): 2060 nM
- GI50 (MDA-MB-435 (melanoma); [6]): 2040 nM
- GI50 [2, 5]: 2520 nM
- GI50 [2, 6]: 2510 nM
- GI50 [3, 5]: 1650 nM
- GI50 [3, 6]: 1660 nM
- GI50 (NCI/ADR-RES (ovarian); NCl/ADR-RES, 48 h exposure, SRB, read-out: GI50): 2200 nM
- GI50 (NCI/ADR-RES (ovarian); [6]): 2190 nM
- GI50 (OVCAR-3 (ovarian); [5]): 1560 nM
- GI50 (OVCAR-3 (ovarian); [6]): 1550 nM
- GI50 (OVCAR-4 (ovarian); [5]): 2210 nM
- GI50 (OVCAR-4 (ovarian); [6]): 2190 nM
- GI50 (OVCAR-5 (ovarian); [5]): 2190 nM
- GI50 (OVCAR-5 (ovarian); [6]): 2190 nM
- GI50 [4, 5]: 1550 nM
- GI50 [4, 6]: 1550 nM
- GI50 (RXF 393 (renal); RXF 393, 48 h exposure, SRB, read-out: GI50): 1510 nM
- GI50 (RXF 393 (renal); RXF-393, read-out: pGI50 (-log of molar concentration causing 50% inhibition of net cell growth) (converted)): 1510 nM
- GI50 (SF-268 (CNS); [5]): 1780 nM
- GI50 (SF-268 (CNS); [6]): 1780 nM
- GI50 (SF-295 (CNS); [5]): 1790 nM
- GI50 (SF-295 (CNS); [6]): 1780 nM
- GI50 (SK-MEL-2 (melanoma); [5]): 2070 nM
- GI50 (SK-MEL-2 (melanoma); [6]): 2090 nM
- GI50 (SNB-75 (CNS); [5]): 1460 nM
- GI50 (SNB-75 (CNS); [6]): 1450 nM
- GI50 (TK-10 (renal); [5]): 2830 nM
- GI50 (TK-10 (renal); [6]): 2820 nM
- GI50 (U251 (CNS); U-251, 48 h exposure, SRB, read-out: GI50): 580 nM
- GI50 (U251 (CNS); U-251, read-out: pGI50 (-log of molar concentration causing 50% inhibition of net cell growth) (converted)): 575 nM
- GI50 (UACC-62 (melanoma); [5]): 1850 nM
- GI50 (UACC-62 (melanoma); [6]): 1860 nM
- GI50 (UO-31 (renal); [5]): 550 nM
- GI50 (UO-31 (renal); [6]): 550 nM

From patent US8889874B2, “Imidazolone-chalcone derivatives as potential anticancer agent and process for the preparation thereof” (Council of Scientific and Industrial Research, priority 2010, dated 2014)
